Source: US12685312B2, “Sulfonamide apyrase inhibitors” (Texas Crop Science, Inc., priority 2022, dated 2026)

system: apyrase; test: Screen for apyrase inhibitors (Method 1, in vitro phosphate-release absorbance assay); format: biochemical; settings: inhibitor conc at 1 mM stock, 1 hr room temperature, absorbance 630 nm; rounded average of two assay results
In short: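 Phosphate-release colorimetric assay (Windsor method) in 60 mM Hepes, 3 mM MgCl2, 3 mM CaCl2, 3 mM ATP, pH 6.5, with compound or DMSO control added. Released phosphate developed with ammonium molybdate and ascorbic acid/TCA, then stopped with citrate/acetic acid.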

Row | Structure (SMILES) | % Inhibition of Apyrase [%]
1 | O=C(Nc1ccccc1)c1cccc(NS(=O)(=O)c2cccs2)c1 [I-658, N-phenyl-3-(thiophene-2-sulfonamido)benzamide] | 32
2 | O=C(Nc1cnccn1)c1cccc(NS(=O)(=O)c2c(F)cccc2F)c1 [I-659, 3-((2,6-difluorophenyl)sulfonamido)-N-(pyrazin-2-yl)benzamide] | 31
3 | O=C(Nc1nccs1)c1cccc(NS(=O)(=O)c2ccc3c(c2)OCCO3)c1 [I-660, 3-((2,3-dihydrobenzo[b][1,4]dioxine)-6-sulfonamido)-N-(thiazol-2-yl)benzamide] | 29
4 | O=C(Nc1nccs1)c1cccc(NS(=O)(=O)c2ccc(Br)cc2)c1 [I-661, 3-((4-bromophenyl)sulfonamido)-N-(thiazol-2-yl)benzamide] | 26
5 | Cc1ccc(NC(=O)c2cccc(NS(=O)(=O)c3cccs3)c2)c(C)c1 [I-662, N-(2,4-dimethylphenyl)-3-(thiophene-2-sulfonamido)benzamide] | 26
6 | Cc1ccnc(NC(=O)c2cccc(NS(=O)(=O)c3ccc4c(c3)OCCCO4)c2)c1 [I-663, 3-((3,4-dihydro-2H-benzo[b][1,4]dioxepine)-7-sulfonamido)-N-(4-methylpyridin-2-yl)benzamide] | 25
7 | Cc1nc2cc(NC(=O)c3cccc(NS(=O)(=O)c4cccs4)c3)ccc2o1 [I-664, N-(2-methylbenzo[d]oxazol-5-yl)-3-(thiophene-2-sulfonamido)benzamide] | 24
8 | O=C(Nc1ccccc1Cl)c1cccc(NS(=O)(=O)c2cccs2)c1 [I-665, N-(2-chlorophenyl)-3-(thiophene-2-sulfonamido)benzamide] | 22
9 | O=C(Nc1ccc(Br)cn1)c1cccc(NS(=O)(=O)c2ccc(F)c(Cl)c2)c1 [I-666, N-(5-bromopyridin-2-yl)-3-((3-chloro-4-fluorophenyl)sulfonamido)benzamide] | 21
10 | Cc1csc(NC(=O)c2cccc(NS(=O)(=O)c3ccccc3)c2)n1 [I-667, N-(4-methylthiazol-2-yl)-3-(phenylsulfonamido)benzamide] | 12
11 | O=C(Nc1cnccc1O)c1cccc(NS(=O)(=O)c2ccc(Cl)c(Cl)c2)c1 [I-668, 3-((3,4-dichlorophenyl)sulfonamido)-N-(4-hydroxypyridin-3-yl)benzamide] | 10
12 | Cc1ccc(C)c(S(=O)(=O)Nc2cccc(C(=O)Nc3cnccn3)c2)c1 [I-669, 3-((2,5-dimethylphenyl)sulfonamido)-N-(pyrazin-2-yl)benzamide] | 7
13 | O=C(Nc1cnccn1)c1cccc(NS(=O)(=O)c2ccccc2)c1 [I-670, 3-(phenylsulfonamido)-N-(pyrazin-2-yl)benzamide] | 6
14 | CCOc1ccc(S(=O)(=O)Nc2cccc(C(=O)Nc3nnc[nH]3)c2)cc1 [I-671, 3-((4-ethoxyphenyl)sulfonamido)-N-(4H-1,2,4-triazol-3-yl)benzamide] | 2
15 | O=C(Nc1nnc[nH]1)c1cccc(NS(=O)(=O)c2ccc(Br)cc2)c1 [I-672, 3-((4-bromophenyl)sulfonamido)-N-(4H-1,2,4-triazol-3-yl)benzamide] | 1
16 | O=C(Nc1cccc(S(=O)(=O)Nc2ccc(Br)cc2)c1)c1ccsc1 [I-701, N-(3-(N-(4-bromophenyl)sulfamoyl)phenyl)thiophene-3-carboxamide] | 79
17 | O=C(Nc1cccc(S(=O)(=O)Nc2ccc(Br)cc2)c1)c1ccc([N+](=O)[O-])s1 [I-702, N-(3-(N-(4-bromophenyl)sulfamoyl)phenyl)-5-nitrothiophene-2-carboxamide] | 73
18 | O=C(Nc1cccc(S(=O)(=O)Nc2ccc(Br)cc2)c1)c1ccc(Cl)nc1 [I-703, N-(3-(N-(4-bromophenyl)sulfamoyl)phenyl)-6-chloronicotinamide] | 71
19 | CN(c1ccccc1)S(=O)(=O)c1cccc(NC(=O)c2cc3cc(F)ccc3[nH]2)c1 [I-704, 5-fluoro-N-(3-(N-methyl-N-phenylsulfamoyl)phenyl)-1H-indole-2-carboxamide] | 65
20 | Cc1cc(C(=O)Nc2cccc(S(=O)(=O)Nc3ccccc3F)c2)c(C)n1C1CC1 [I-705, 1-cyclopropyl-N-(3-(N-(2-fluorophenyl)sulfamoyl)phenyl)-2,5-dimethyl-1H-pyrrole-3-carboxamide] | 64
21 | CN(c1ccccc1)S(=O)(=O)c1cccc(NC(=O)c2ccc(Br)s2)c1 [I-706, 5-bromo-N-(3-(N-methyl-N-phenylsulfamoyl)phenyl)thiophene-2-carboxamide] | 62
22 | COc1ccccc1NS(=O)(=O)c1cccc(NC(=O)c2c[nH]c3ccccc23)c1 [I-707, N-(3-(N-(2-methoxyphenyl)sulfamoyl)phenyl)-1H-indole-3-carboxamide] | 62

Row | Structure (SMILES) | % Inhibition of Apyrase [%]
23 | Cc1cccc(C(=O)Nc2cccc(S(=O)(=O)Nc3cccc(C(F)(F)F)c3)c2)n1 [I-708, 6-methyl-N-(3-(N-(3-(trifluoromethyl)phenyl)sulfamoyl)phenyl) picolinamide] | 61
24 | O=C(Nc1cccc(S(=O)(=O)Nc2ccc(Cl)cc2)c1)c1cc2c(s1)CCCC2 [I-709, N-(3-(N-(4-chlorophenyl)sulfamoyl)phenyl)-4,5,6,7-tetrahydrobenzo[b]thiophene-2-carboxamide] | 61
25 | CN(c1ccccc1)S(=O)(=O)c1cccc(NC(=O)c2cccs2)c1 [I-710, N-(3-(N-methyl-N-phenylsulfamoyl)phenyl)thiophene-2-carboxamide] | 60
26 | CCOc1ncccc1C(=O)Nc1cccc(S(=O)(=O)N(C)c2ccccc2)c1 [I-711, 2-ethoxy-N-(3-(N-methyl-N-phenylsulfamoyl)phenyl)nicotinamide] | 60
27 | O=C(Nc1cccc(S(=O)(=O)Nc2ccc(Cl)cc2)c1)c1ccoc1 [I-712, N-(3-(N-(4-chlorophenyl)sulfamoyl)phenyl)furan-3-carboxamide] | 59
28 | Cc1cc(C(=O)Nc2cccc(S(=O)(=O)Nc3ccccc3Cl)c2)sc1C [I-713, N-(3-(N-(2-chlorophenyl)sulfamoyl)phenyl)-4,5-dimethylthiophene-2-carboxamide] | 58
29 | COc1ccc(NS(=O)(=O)c2cccc(NC(=O)c3ccc(Cl)nc3)c2)cc1 [I-714, 6-chloro-N-(3-(N-(4-methoxyphenyl)sulfamoyl)phenyl) nicotinamide] | 58
30 | O=C(Nc1cccc(S(=O)(=O)Nc2cccc(C(F)(F)F)c2)c1)c1cc2ccccc2o1 [I-715, N-(3-(N-(3-(trifluoromethyl)phenyl)sulfamoyl)phenyl) benzofuran-2-carboxamide] | 58
31 | CN(c1ccccc1)S(=O)(=O)c1cccc(NC(=O)c2ccsc2)c1 [I-716, N-(3-(N-methyl-N-phenylsulfamoyl)phenyl)thiophene-3-carboxamide] | 58
32 | O=C(Nc1cccc(S(=O)(=O)Nc2ccc(Cl)cc2)c1)c1ccsc1 [I-717, N-(3-(N-(4-chlorophenyl)sulfamoyl)phenyl)thiophene-3-carboxamide] | 58
33 | O=C(Nc1cccc(S(=O)(=O)Nc2cccc(C(F)(F)F)c2)c1)c1ccsc1 [I-718, N-(3-(N-(3-(trifluoromethyl)phenyl)sulfamoyl)phenyl) thiophene-3-carboxamide] | 58
34 | CN(c1ccccc1)S(=O)(=O)c1cccc(NC(=O)c2cncc(Br)c2)c1 [I-720, 5-bromo-N-(3-(N-methyl-N-phenylsulfamoyl)phenyl)nicotinamide] | 58
35 | COC(=O)c1c(C)[nH]c(C(=O)Nc2cccc(S(=O)(=O)Nc3cccc(C(F)(F)F)c3)c2)c1C [I-721, methyl 2,4-dimethyl-5-((3-(N-(3-(trifluoromethyl)phenyl)sulfamoyl)phenyl)carbamoyl)-1H-pyrrole-3-carboxylate] | 57
36 | CN(c1ccccc1)S(=O)(=O)c1cccc(NC(=O)c2ccc(Br)o2)c1 [I-722, 5-bromo-N-(3-(N-methyl-N-phenylsulfamoyl)phenyl)furan-2-carboxamide] | 57
37 | O=C(Nc1cccc(S(=O)(=O)Nc2ccc(I)cc2)c1)c1ccccn1 [I-723, N-(3-(N-(4-iodophenyl)sulfamoyl)phenyl)picolinamide] | 57
38 | O=C(Nc1cccc(S(=O)(=O)Nc2cccc(C(F)(F)F)c2)c1)c1cc2c(s1)CCCC2 [I-724, N-(3-(N-(3-(trifluoromethyl)phenyl)sulfamoyl)phenyl)-4,5,6,7-tetrahydrobenzo[b]thiophene-2-carboxamide] | 57
39 | O=C(Nc1cccc(S(=O)(=O)Nc2cccc(C(F)(F)F)c2)c1)c1ccc(Cl)nc1 [I-725, 6-chloro-N-(3-(N-(3-(trifluoromethyl)phenyl)sulfamoyl)phenyl) nicotinamide] | 57
40 | O=C(Nc1cccc(S(=O)(=O)Nc2cccc(Cl)c2)c1)c1ccc(Br)s1 [I-726, 5-bromo-N-(3-(N-(3-chlorophenyl)sulfamoyl)phenyl)thiophene-2-carboxamide] | 56
41 | COc1ccc(NS(=O)(=O)c2cccc(NC(=O)c3[nH]c(C)c(C(C)=O)c3C)c2)cc1 [I-727, 4-acetyl-N-(3-(N-(4-methoxyphenyl)sulfamoyl)phenyl)-3,5-dimethyl-1H-pyrrole-2-carboxamide] | 56
42 | O=C(Nc1cccc(S(=O)(=O)Nc2ccc(SC(F)F)cc2)c1)c1ccsc1 [I-728, N-(3-(N-(4-((difluoromethyl)thio)phenyl)sulfamoyl)phenyl) thiophene-3-carboxamide] | 56
43 | O=C(Nc1cccc(S(=O)(=O)Nc2ccccc2)c1)c1cccc(Cl)n1 [I-729, 6-chloro-N-(3-(N-phenylsulfamoyl)phenyl)picolinamide] | 56
44 | O=C(Nc1cccc(S(=O)(=O)Nc2ccccc2Cl)c1)c1ccc([N+](=O)[O-])s1 [I-730, N-(3-(N-(2-chlorophenyl)sulfamoyl)phenyl)-5-nitrothiophene-2-carboxamide] | 55
